This passage reports EC50 and CC50 results from US20220081444A1, “6,7-DIHYDRO-4H-PYRAZOLO[1,5-A]PYRAZINE INDOLE-2-CARBOXAMIDES ACTIVE AGAINST THE HEPATITIS B VIRUS (HBV)” (AiCuris GmbH & Co. KG, priority 2018, published 2022).

One series concerns HBV. Particulars: read-out: Cell Activity (EC50).
The subject of a further series is HepAD38 cells. In words: Cell viability assay (AlamarBlue cytotoxicity). Particulars: HepAD38 cells in the presence of 0.3 μg/ml tetracycline, six days incubation.
A further series can be described thus: in vitro. Particulars: human.
The mark [1] stands for this setting: Hepatitis B virus, HePAD38, 144 h.

Counter-ions that a name gives are not always drawn. Like-named read-outs stand apart in the source and are kept apart here.

For the compound “3-yl)methyl]-4H,5H, 6H,7H-pyrazolo[1,5-a]pyrazin-2-amine [Example 25]”, in the series with HBV (HBV DNA in HepAD38 supernatant at day 6, qPCR), the EC50 was below 1000 nM. In addition, the CC50 in the series with HepAD38 cells is above 10 µM. As for `CCc1cc(F)cc2[nH]c(C(=O)N3CCn4nc(NCC5CCOC5)cc4C3)cc12` (centres unmarked) [Example 29, 5-(4-ethyl-6-fluoro-1H-indole-2-carbonyl)-N-[(oxolan-3-yl)methyl]-4H,5H,6H,7H-pyrazolo[1,5-a]pyrazin-2-amine], the EC50 in the series with HBV (setting [1]) was below 1000 nM. In the series “in vitro”, this compound yielded a CC50 above 10 µM. `CC1(S(=O)(=O)Nc2cc3n(n2)CCN(C(=O)c2cc4ccccc4[nH]2)C3)CC1` [Example 44, N-[5-(1H-indole-2-carbonyl)-4H,5H,6H,7H-pyrazolo[1,5-a]pyrazin-2-yl]-1-methylcyclopropane-1-sulfonamide]: the EC50 in the series on HBV (setting [1]) was below 1000 nM. The same compound registered a CC50 in the series “in vitro” above 10 µM. Taken in the same sequence, the figures for `O=C(Nc1cc2n(n1)CCN(C(=O)c1cc3ccccc3[nH]1)C2)C1CC2CC1CN2` (centres unmarked) [Example 82, N-[5-(1H-indole-2-carbonyl)-4H,5H,6H,7H-pyrazolo[1,5-a]pyrazin-2-yl]-2-azabicyclo[2.2.1]heptane-5-carboxamide dihydrochloride] were 1000 to 10000 nM and above 10 µM. For `O=C(Nc1cc2n(n1)CCN(C(=O)c1cc3ccccc3[nH]1)C2)[C@H]1CCNC[C@@H]1F` [Example 86, (3R,4R)-3-fluoro-N-[5-(1H-indole-2-carbonyl)-4H,5H,6H,7H-pyrazolo[1,5-a]pyrazin-2-yl]piperidine-4-carboxamide dihydrochloride], the half-maximal effective concentration (EC50) in the series with HBV (setting [1]) was below 1000 nM. Further, in “in vitro”, the CC50 was above 10 µM. On to `O=C(c1cc2ccccc2[nH]1)N1CCn2nc(N[C@H]3C[C@@H](O)C3)cc2C1` [Example 91, (1s,3s)-3-{[5-(1H-indole-2-carbonyl)-4H,5H,6H,7H-pyrazolo[1,5-a]pyrazin-2-yl]amino}cyclobutan-1-ol], for which, in the series with HBV (setting [1]), the EC50 was below 1000 nM.

Consider `O=C(c1cc2ccccc2[nH]1)N1CCn2nc(NC3(CO)CC3)cc2C1` [Example 92, (1-{[5-(1H-indole-2-carbonyl)-4H,5H,6H,7H-pyrazolo[1,5-a]pyrazin-2-yl]amino}cyclopropyl)methanol], for which the EC50 with HBV (setting [1]) was below 1000 nM.

Turning to `CCc1cccc2[nH]c(C(=O)N3CCn4nc(NCC5(O)CCC5)cc4C3)cc12` [Example 93, 1-({[5-(4-ethyl-1H-indole-2-carbonyl)-4H,5H,6H,7H-pyrazolo[1,5-a]pyrazin-2-yl]amino}methyl)cyclobutan-1-ol], the EC50 in the series with HBV (setting [1]) is below 1000 nM.

Regarding `COC1(CNc2cc3n(n2)CCN(C(=O)c2cc4ccccc4[nH]2)C3)CCOC1` (centres unmarked) [Example 94, 5-(1H-indole-2-carbonyl)-N-[(3-methoxyoxolan-3-yl)methyl]-4H,5H,6H,7H-pyrazolo[1,5-a]pyrazin-2-amine], in the series on HBV (setting [1]), the EC50 was below 1000 nM.
